Assay results from patent US9408866B2, “Method for detoxification or measurement of at least one compound or at least one fluid in a host body” (NIVA, priority 2012, dated 2016).
Marks after values point to notes of the source that are not given here.

Key:
[1] = Contaminant masses in explanted silicone breast prostheses (acetone extraction, GC-MS); type: in vivo, human
Excerpt: Silicone prostheses were obtained following breast implant surgery during a period spanning from July 2010 to January 2012. Reasons for explanation ranged from severe capsular contracture to a wish for a change in prosthesis size.
Prostheses were collected during surgical explanation from patients and wrapped individually in clean aluminium foil and stored in labelled plastic bags.
As soon as possible after, samples were stored in a freezer. Samples were then transported on ice to the laboratory and stored at −20° C. until analysis. For this proof-of-concept study, 9 prostheses were extracted and analysed. […] Two prostheses were duplicates and their analysis aimed to investigate the reproducibility of the analytical steps as well as of the representativeness of the sampling (samples 2, 6, and 9 in Table 1). All prostheses were made of medical silicone gel enclosed in an outer silicone shell filled with gel with various degree of cohesiveness. Differences between prostheses from various producers include volume, type of silicone material, surface texture and thickness of the outer shell and cohesive degree of the filling gel. Prostheses were tinted and tinting from light yellow to orange appeared (from visual inspection only) dependent on exposure time. […]
Silicone prosthesis extraction were performed in batches of 10-12 samples and included a blank prosthesis (volume of 200-450 cm^3), a spiked prosthesis to assess extraction efficiency and a solvent blank to evaluate potential contamination during extraction and extract clean-up. Extraction of the whole prostheses was undertaken in pre-baked 2 L beakers kept in the dark to prevent photo degradation. Samples were brought to room temperature and the surface was rinsed with ultrapure water and dried with a clean tissue. Connective tissue capsule attached to the surface of prostheses were removed. Samples were extracted by soaking in 1 L of acetone for 24 hours. Acetone was chosen for its low capacity to swell the silicone matrix and because of the ease with which it can volatilise. Recovery standards for organochlorines, PCBs and PBDEs (including for BDE-209) were added to the acetone. It was expected that 24 hours is sufficient for chemicals (present in either phases) to partition between the solvent phase and the silicone prosthesis. The acetone was replaced by another 1 L of acetone and samples were extracted for a further 24 hours. The two volumes of acetone were combined and reduced under a gentle stream of nitrogen. Prostheses were weighed before and after solvent extraction to determine the total amount of silicone oils and other substances removed from the matrix during solvent extraction. A second set of internal standards was used to evaluate possible losses during the sample clean-up step. The solvent was changed to isohexane and sample clean-up consisted of repeated sulphuric acid treatment until no colouring of the extract could be observed. Extract were then passed through a silica-filled solid phase extraction column and eluted with dichloromethane or isohexane. Extracts were reduced to an adequate volume before analysis.
Analytes were separated on a 30 m-long DB-5MS column (0.25 mm i.d. and 0.25 μm film thickness, Agilent JW Scientific, Santa Clara, USA) following 1 μL pulsed splitless injection (pulse pressure 20 psi for 1.2 min, injector temperature of 300° C.). The helium gas flow was set to 1.2 mL min^−1 and the GC oven temperature programme consisted of a step at 60° C. (held for 2 min) before an increase to 250° C. (at the rate 7° C. min^−1) and a final increase to 310° C. (at the rate of 15° C. min^−1) with this temperature held constant for a further 5 min. Ion source, quadrupole and transfer line temperatures were set to 230, 150 and 280° C., respectively. Quantification was performed using the relative response of surrogate internal standards (CB-30, CB-53 and CB-204) and 7-point calibration curves. […]

[2] = seal lipids, taken from Jahnke et al. (2008); cited from earlier work
[3] = mean, Norwegian women (n = 20) age 25-59, Thomsen et al. (2007); cited from earlier work
[4] = POP concentration in lipids estimated from concentrations measured in prostheses; type: in vivo, human; conditions: estimated from silicone prosthesis concentrations, silicone density of 1.0 and Klip-sil values
Method: The representativeness and suitability of POP concentrations measured in explanted silicone prostheses can be evaluated through comparison with literature data on POP levels measured in breast milk or blood serum from Norwegian women. Using seal oil lipid-to-silicone partition coefficients, Klip-sil for PCBs and DDTs, estimates of POP concentrations in lipids of participants of the present invention were calculated. This approach assumes that the influence of the type of silicone and of lipids on lipid-silicone partition coefficients is minor.

[5] = milk from Norwegian women (n = 70), Thomsen et al. (2011); cited from earlier work
[6] = Sample 2, duplicate explanted prostheses analysed in the same batch

Structure (SMILES) | Prosthesis contaminant mass, Mean [1, 6] [ng sample^−1] | Klip-sil (lipid-silicone partition coefficient) [2] [g/g] | Measured Cserum [3] [ng g^−1 lipid] | Estimated Clipid [4] [ng/g] | Measured Cmilk (median with range in brackets) [5] | Prosthesis contaminant mass, Mean ([1]; human, in vivo) [ng sample^−1]
Brc1ccc(Oc2ccc(Br)cc2Br)cc1 [BDE-28] | 0.5 | – | – | – | – | –
Brc1ccc(Oc2ccc(Br)cc2Br)c(Br)c1 [BDE-47] | 1.6 | – | – | – | – | –
Brc1ccc(Oc2ccc(Br)c(Br)c2)cc1Br [BDE-77] | 0.8 | – | – | – | – | –
Brc1cc(Br)c(Oc2cc(Br)c(Br)cc2Br)cc1Br [BDE-153] | 3.7 | – | – | – | – | –
Brc1cc(Br)c(Oc2cc(Br)c(Br)cc2Br)c(Br)c1 [BDE-154] | 0.5 | – | – | – | – | –
Brc1c(Br)c(Br)c(Oc2c(Br)c(Br)c(Br)c(Br)c2Br)c(Br)c1Br [BDE-209] | 6.5 | – | – | – | – | –
Clc1ccc(Cl)c(-c2cc(Cl)ccc2Cl)c1 [CB-52] | – | 19.2 | – | – | – | –
Clc1ccc(Cl)c(-c2cc(Cl)c(Cl)cc2Cl)c1 [CB-101] | 7.6 | 26.3 | 5.8 | 0.5 | 6.4 (1.8-36)^f ng g^−1 lipid | –
Clc1ccc(-c2ccc(Cl)c(Cl)c2Cl)cc1Cl [CB-105] | 11 | 35.4 | – | 1.5 | 1.8 (0.89-3.2)^f ng g^−1 lipid | –
Clc1ccc(-c2cc(Cl)c(Cl)cc2Cl)cc1Cl [CB-118] | 52 | 35.2 | 8.0 | 7.5 | 9.3 (4.0-15)^f ng g^−1 lipid | –
Clc1cc(Cl)c(-c2ccc(Cl)c(Cl)c2Cl)cc1Cl [CB-138] | 123 | 34.0 | 20 | 27 | 16 (8-30)^f ng g^−1 lipid | –
Clc1cc(Cl)c(-c2cc(Cl)c(Cl)cc2Cl)cc1Cl [CB-153] | 252 | 38.1 | 43 | 62 | 38 (20-68) ng g^−1 lipid | –
Clc1ccc(-c2cc(Cl)c(Cl)c(Cl)c2Cl)cc1Cl [CB-156] | 15 | 50.8 | – | 4.5 | 3.2 (1.5-5.9)^f ng g^−1 lipid | –
Clc1cc(Cl)c(-c2cc(Cl)c(Cl)c(Cl)c2Cl)cc1Cl [CB-180] | 9.3 | 49.4 | 34 | 4.2 | 17 (8.5-32)^f ng g^−1 lipid | –
Clc1c(Cl)c(Cl)c(Cl)c(Cl)c1Cl [HCB, hexachlorobenzene] | 181 | – | – | 10.9 | – | –
ClC(Cl)=C(Cl)c1c(Cl)c(Cl)c(Cl)c(Cl)c1Cl [OCS, octachlorostyrene] | – | – | – | – | – | 3.5
Clc1cc(Cl)c(Cl)c(Cl)c1Cl [PeCB, pentachlorobenzene] | 5.6 | – | – | – | – | –
Clc1ccc(C(c2ccccc2Cl)C(Cl)(Cl)Cl)cc1 (centres unmarked) [o,p′-DDT] | – | 21.3 | – | 0.8 | – | –
ClC(Cl)=C(c1ccc(Cl)cc1)c1ccc(Cl)cc1 [p,p′-DDE] | 543 | – | – | – | – | –
Clc1ccc(C(c2ccc(Cl)cc2)C(Cl)(Cl)Cl)cc1 [p,p′-DDT] | 38 | 50.7 | – | 5.7 | – | –
